In one series the target is T1, GIRK1-S65A with GIRK4 (Homo sapiens, UniProt P48544+P48549, S65A).
T1 construct: expressed in transfected cells; host or cells: HEK293-T cells
T1 sequence (P48549 1-501 S65A): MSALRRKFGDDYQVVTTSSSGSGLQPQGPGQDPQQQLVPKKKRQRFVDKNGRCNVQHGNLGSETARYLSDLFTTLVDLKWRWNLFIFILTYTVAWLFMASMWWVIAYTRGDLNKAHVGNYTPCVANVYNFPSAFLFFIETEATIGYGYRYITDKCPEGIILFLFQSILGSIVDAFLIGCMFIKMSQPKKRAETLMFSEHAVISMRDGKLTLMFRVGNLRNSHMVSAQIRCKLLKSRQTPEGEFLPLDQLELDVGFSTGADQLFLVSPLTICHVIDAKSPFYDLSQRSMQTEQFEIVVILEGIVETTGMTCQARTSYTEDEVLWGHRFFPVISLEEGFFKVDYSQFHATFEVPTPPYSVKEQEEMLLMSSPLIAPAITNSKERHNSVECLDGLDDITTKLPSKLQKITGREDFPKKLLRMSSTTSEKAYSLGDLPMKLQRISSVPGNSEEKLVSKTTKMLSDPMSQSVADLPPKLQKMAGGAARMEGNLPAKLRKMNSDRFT
T1 sequence (P48544 1-419): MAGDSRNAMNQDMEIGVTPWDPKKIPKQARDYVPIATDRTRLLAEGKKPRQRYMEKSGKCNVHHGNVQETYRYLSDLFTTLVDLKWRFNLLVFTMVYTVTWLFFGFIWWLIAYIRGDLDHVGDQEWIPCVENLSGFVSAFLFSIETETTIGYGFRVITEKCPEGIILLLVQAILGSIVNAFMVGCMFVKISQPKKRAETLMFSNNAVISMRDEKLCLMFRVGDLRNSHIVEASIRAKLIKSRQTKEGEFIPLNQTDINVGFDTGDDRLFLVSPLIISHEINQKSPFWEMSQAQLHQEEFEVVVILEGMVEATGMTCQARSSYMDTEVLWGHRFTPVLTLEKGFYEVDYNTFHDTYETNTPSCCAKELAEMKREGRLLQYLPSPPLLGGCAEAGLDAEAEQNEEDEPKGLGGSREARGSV
In words: 5-ptaseOCRL current inhibition, GIRK1/4 channels containing GIRK1-S65A subunits. Format: cell-based. The text has this:
To identify changes in specific channel residue interactions with PIP2 upon ligand binding, the inventors carried out Principal Component Analysis (PCA) in the presence and absence of ML297 and GAT1508. The PCA analysis implicated changes in the slide (or interfacial) helix interactions with PIP2 upon ligand binding. Polar interactions could be formed between GIRK2^FD(Y76) and GIRK4^FD(Y71) with the P(4,5) of PIP2 when ML297 was bound to the same subunit (FIG. 39 top, FIG. 40). In contrast, when GAT1508 was bound this interaction was retained by GIRK2^FD but not GIRK4^FD (FIG. 39 bottom, FIG. 40). The corresponding GIRK1(S65) residue (FIG. 41, highlighted with vertical rectangle) could be serving the same role in stabilizing the phosphoinositol headgroup for interactions with non-ligand binding subunits. As polar residues, both Ser and Tyr could form H-bond interactions with PIP2. […]
Patch-clamp recording: Whole-cell currents were recorded with an Axopatch 200B amplifier (Molecular Devices) controlled via a USB-interface (National Instruments) using WinWCP software (University of Strathclyde). […] The barium-sensitive component of the current, observed when cells were perfused with the high-K^+ buffer, was analyzed and was determined by perfusing 5 mM BaCl2 in the high-K^+ buffer at the end of each experiment. […]

In series [1] the test system is right atrium of isolated Langendorff-perfused mouse heart. Kind of series: optical mapping of atrial action potential duration in isolated Langendorff-perfused mouse heart. To be noted: for atrial optical action potential duration 70% repolarization (APD70), quantification: 2.4 μM, 10 Hz stimulation, FIGS. 23A-23B, controls 23.93 (ML297) and 23.1 (GAT1508); for average APD70 of the map of the stimulated right atrium: 10 minutes after 2.4 μM, 10 Hz, FIG. 22, controls 23.9 (ML297) and 21.8 (GAT1508). How it is done: Optical mapping studies in isolated hearts: Isolated hearts of C57BL/6 mice, four to six months of age, were retrogradely perfused with Tyrode's solution in the Langendorff mode. The preparations were maintained at 37° C., and stained with a bolus of a voltage sensitive dye (0.25 ml, 10 μM Di-4-ANEPPS, Molecular Probes) and imaged with a CCD camera (RedShirt Imaging), 80×80 pixels, 85 μm per pixel, and 1000 frames per second. […] A bipolar, silver tip stimulation electrode was used to pace the right atrium (2.5 5 ms pulses, 2× diastolic threshold) at 10 Hz using an AD Instrument stimulation platform. ML297 or GAT1508 at 2.4 μM were introduced into the perfusate. The action potential duration at 70% repolarization (APD70), was quantified as the inventors have done extensively.

Molecules are shown by their SMILES.

Consider `Cc1cc(NC(=O)Nc2ccc(Br)s2)n(-c2ccccc2)n1` [GAT1508, 1-(5-bromothiophen-2-yl)-3-(3-methyl-1-phenyl-1H-pyrazol-5-yl)urea], for which the “protection of current from 5-ptaseOCRL (in words)” value on GIRK1-S65A with GIRK4 was “not protected”. Also, in series [1], the “atrial optical action potential duration 70% repolarization (APD70), quantification” value came out at 23.57 ms and the “average APD70 of the map of the stimulated right atrium” value was determined as 20.3 ms.
Turning to `Cc1cc(NC(=O)Nc2ccc(F)c(F)c2)n(-c2ccccc2)n1` [ML297, reference compound], the “protection of current from 5-ptaseOCRL (in words)” value on GIRK1-S65A with GIRK4 was “not protected”. Also, in series [1], the “atrial optical action potential duration 70% repolarization (APD70), quantification” value amounted to 16.53 ms and the “average APD70 of the map of the stimulated right atrium” value stood at 16 ms.

The record behind these values is patent publication US12351574B2, “Selective ligands for modulation of GIRK channels” (Northeastern University, priority 2018, dated 2025).
